Data: the supplement of paper PMC10307832

Columns and labels:
Assay in all cases: relative viability (nuclei count vs DMSO), 5 days (fraction); higher = more cells survive
Cediranib + Pemetrexed = compound: COc1cc2c(Oc3ccc4[nH]c(C)cc4c3F)ncnc2cc1OCCCN1CCCC1 [Cediranib] + Nc1nc2[nH]cc(CCc3ccc(C(=O)N[C@@H](CCC(=O)O)C(=O)O)cc3)c2c(=O)[nH]1 [Pemetrexed] (partner 0.2 µM)
Method in brief: (§1)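 Medians of duplicate plates are given as relative viability. That measure is the nuclei count in treated wells divided by the count in vehicle wells. Counts were taken on 4× images of lung cancer cell lines in 1536-well plates, 5 days after pin-tool dosing the day after seeding with one drug alone or a fixed anchor-drug dose plus five library-drug doses (not always all listed) in √10 steps.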

Cediranib + Decitabine = compound: COc1cc2c(Oc3ccc4[nH]c(C)cc4c3F)ncnc2cc1OCCCN1CCCC1 [Cediranib] + Nc1ncn([C@H]2C[C@H](O)[C@@H](CO)O2)c(=O)n1 [Decitabine] (partner 2 µM)
Method in brief: as §1

Decitabine + Tozasertib = compound: Nc1ncn([C@H]2C[C@H](O)[C@@H](CO)O2)c(=O)n1 [Decitabine] + Cc1cc(Nc2cc(N3CCN(C)CC3)nc(Sc3ccc(NC(=O)C4CC4)cc3)n2)n[nH]1 [Tozasertib] (partner 0.1 µM)
Method in brief: as §1

[1] = compound: O=C(C[C@H]1NCCC[C@@H]1O)Cn1cnc2cc(Br)c(Cl)cc2c1=O (racemic) [Halofuginone] + CC(C)C[C@H](NC(=O)[C@H](Cc1ccccc1)NC(=O)c1cnccn1)B(O)O [Bortezomib] (partner 0.002 µM)
Method in brief: as §1

Cell Line | relative viability (Cediranib + Pemetrexed; first compound 0.04 µM) | relative viability (Cediranib + Pemetrexed; first compound 0.1265 µM) | relative viability (Cediranib + Pemetrexed; first compound 0.4 µM) | relative viability (Cediranib + Pemetrexed; first compound 1.265 µM) | relative viability (Cediranib + Pemetrexed; first compound 4 µM) | relative viability (Cediranib + Decitabine; first compound 0.04 µM) | relative viability (Cediranib + Decitabine; first compound 0.4 µM) | relative viability (Cediranib + Decitabine; first compound 4 µM) | relative viability (Decitabine + Tozasertib; first compound 0.1265 µM) | relative viability (Decitabine + Tozasertib; first compound 0.4 µM) | relative viability (Decitabine + Tozasertib; first compound 1.265 µM) | relative viability (Decitabine + Tozasertib; first compound 4 µM) | relative viability ([1]; first compound 0.001 µM) | relative viability ([1]; first compound 0.003162 µM) | relative viability ([1]; first compound 0.01 µM) | relative viability ([1]; first compound 0.03162 µM) | relative viability ([1]; first compound 0.1 µM) | relative viability (Cediranib + Decitabine; first compound 0.1265 µM) | relative viability (Cediranib + Decitabine; first compound 1.265 µM) | relative viability (Decitabine + Tozasertib; first compound 0.04 µM)
H3255 | 0.588 | 0.542 | 0.567 | 0.533 | 0.54 | 0.534 | 0.601 | 0.487 | 0.633 | 0.524 | 0.506 | 0.431 | 0.906 | 0.664 | 0.616 | 0.767 | 0.651 |  |  | 
HARA | 0.194 | 0.248 | 0.28 | 0.303 | 0.299 | 0.595 | 0.517 | 0.582 | 0.0855 | 0.0556 | 0.078 | 0.0747 | 1.12 | 1.03 | 1.09 | 1.15 | 1.14 | 0.593 | 0.782 | 0.0975
HCC-15 | 0.209 | 0.222 | 0.226 | 0.218 | 0.22 | 0.645 | 0.575 | 0.644 | 0.388 | 0.345 | 0.213 | 0.175 | 1.02 | 1.14 | 1.05 | 1.03 | 0.952 | 0.433 | 0.688 | 0.308
HCC-44 | 0.695 | 0.589 | 0.637 | 0.656 | 0.682 | 0.932 | 0.93 | 0.958 | 1.01 | 0.174 | 0.457 | 0.382 | 0.926 | 0.848 | 0.794 | 0.802 | 0.575 | 0.629 | 0.934 | 
HCC-78 | 0.912 | 0.879 | 0.901 | 0.899 | 0.901 | 0.74 | 0.747 | 0.771 | 0.488 | 0.369 | 0.38 | 0.291 | 0.653 | 0.42 | 0.445 | 0.543 | 0.369 | 0.64 | 0.605 | 0.443
HCC-366 | 0.491 | 0.161 | 0.149 | 0.18 | 0.173 | 0.379 | 0.305 | 0.338 | 0.104 | 0.0711 | 0.0439 | 0.0387 | 0.948 | 1.06 | 1.04 | 0.994 | 0.397 | 0.318 | 0.364 | 0.0988
HCC-827 | 0.31 | 0.235 | 0.231 | 0.259 | 0.259 | 0.314 | 0.358 | 0.311 | 0.265 | 0.219 | 0.221 | 0.224 | 1.04 | 1.03 | 0.955 | 0.998 | 0.918 | 0.23 | 0.297 | 0.253
HOP-62 | 0.576 | 0.305 | 0.252 | 0.39 | 0.313 | 0.255 | 0.215 | 0.203 | 0.229 | 0.141 | 0.108 | 0.104 | 0.679 | 0.702 | 0.62 | 0.632 | 0.522 | 0.246 | 0.207 | 0.226
